Measurements published in patent US20080255127A1, “Pesticide Formulations with a Crystallization Risk, and a Method for Their Preparation” (priority 2005, published 2008).

assay: Risk of crystallization of pesticides in ECs and EWs; assay type: physicochemical; conditions: conventional recipes; EW with less than 10% of water
From the text: This is what happened in the case of both EP655197 and EP453899, where the compositions for which the disclosed anticrystallization agents (N,N-dialkylamides) cover the whole range of triazoles with a fungicidal action, without giving examples of all of the compositions in which it is appropriate to use N,N-dimethylalkylamides. […] Propioconazole is an example.
The inventors have established that it is not the similarly of the chemical structure that puts the pesticide “at risk” of crystallization in ECs and EWs, but instead it is much more sensible to evaluate certain experimental parameters (or parameters that are calculated semi-empirically) in order to predict the risk of crystallization. In numerous tests, the inventors have found some pesticides with a risk of crystallization and others without. This risk refers in concrete terms to what happens when 5 ml of the EC or EW is diluted with 95 ml of water and kept in a refrigerator (at 1° C.), after which the emulsion is passed through a 5-μm filter 7 days later.

Compound	Crystallization problems in an emulsifiable concentrate (EC) or emulsion in water (EW)
Propioconazole	free of crystallization problems

assay: Crystallization test of EW formulations Dn (25-μm metal filter); assay type: physicochemical; set-up: key to Crystallization: −: A minus sign indicates the absence of crystals; +: a plus sign indicates their presence; conditions: 5.0% pesticide in formulation Dn
Description: In the crystallization test, an emulsion consisting of 2% of the formulation in 98 ml of water was kept at 1° C. for 24 h and was then passed through a 25-μm metal filter. A minus sign indicates the absence of crystals, while a plus sign indicates their presence. […] The worst emulsion, which however was still acceptable, scored +, a good emulsion scored ++ and the best ones scored +++. Both the phase separation and the time of its occurrence were observed when evaluating the emulsion. […] A single + sign means that some oil did separate out after 2 hours.

Compound	Crystallization problems (in words)
CC1CCCCC1NC(=O)Nc1ccccc1 (centres unmarked) [siduron]	had crystallization problems
CCOC(=O)CSc1nc(C(C)(C)C)nn1C(=O)N(C)C [triazamate]	had crystallization problems

same assay, conditions: 5.0% pesticide in formulation Dn; 2% of the formulation in 98 ml of water, 1° C. for 24 h, 25-μm metal filter

Compound	Crystallization
O=C(O)COc1ccc(Cl)cc1Cl [2,4-D]	−
Cc1cc(Cl)ccc1OCC(=O)O [MCPA]	−
CCNc1nc(Cl)nc(NC(C)C)n1 [atrazine]	−
COP(=S)(OC)SCn1nnc2ccccc2c1=O [azinphos-methyl]	−
O=c1oc2ccccc2c(O)c1C(CC(O)c1ccc(-c2ccc(Br)cc2)cc1)c1ccccc1 (centres unmarked) [bromadiolone]	−
Clc1ccc(C2(Cn3cncn3)CC(Br)CO2)c(Cl)c1 (centres unmarked) [bromuconazole]	−
C=CCOC(=O)C(C)(C)OC(=O)c1cc(-n2c(=O)cc(C(F)(F)F)n(C)c2=O)ccc1Cl [butafenacil]	−
Cc1ccc(NC(=O)N(C)C)cc1Cl [chlorotoluron]	−
O=c1oc2ccccc2c(O)c1C1CCCc2ccccc21 (centres unmarked) [coumatetralyl]	+
O=C(O)C1(C(=O)Nc2ccc(Cl)cc2Cl)CC1 [cyclanilide]	−
CC(C1CC1)C(O)(Cn1cncn1)c1ccc(Cl)cc1 (centres unmarked) [cyproconazole]	−
CC1COC(Cn2cncn2)(c2ccc(Oc3ccc(Cl)cc3)cc2Cl)O1 (centres unmarked) [difenconazole]	−
COc1ccc(C(=CC(=O)N2CCOCC2)c2ccc(Cl)cc2)cc1OC [dimethomorph]	−
CN(C)C(=O)Nc1ccc(Cl)c(Cl)c1 [diuron]	−
CCOc1ccccc1OS(=O)(=O)NC(=O)Nc1nc(OC)cc(OC)n1 [ethoxysulfuron]	−
CC1(C(=O)Nc2ccc(O)c(Cl)c2Cl)CCCCC1 [fenhexamid]	−
C/C(=N/Nc1nc(C)cc(C)n1)c1ccccc1C [ferimzone]	−
C[Si](Cn1cncn1)(c1ccc(F)cc1)c1ccc(F)cc1 [flusilazole]	−
CS(=O)(=O)NC(=O)c1cc(Oc2ccc(C(F)(F)F)cc2Cl)ccc1[N+](=O)[O-] [fomesafen]	−
c1coc(-c2nc3ccccc3[nH]2)c1 [fuberidazole]	−
COC(=O)C(C)N(C(=O)c1ccco1)c1c(C)cccc1C (centres unmarked) [furalaxyl]	−

Compound	Crystallization
CC(C)(C)N(NC(=O)c1ccc(Cl)cc1)C(=O)c1ccccc1 [halofenozide]	−
C=CCOC(Cn1ccnc1)c1ccc(Cl)cc1Cl (centres unmarked) [imazalil]	−
CCC1(CC2(c3cccc(Cl)c3)CO2)C(=O)c2ccccc2C1=O (centres unmarked) [indanofan]	−
Cc1ccc(C(C)NC(=O)[C@@H](NC(=O)OC(C)C)C(C)C)cc1 (some centres unmarked) [iprovalicarb]	−
CC(C)c1ccc(NC(=O)N(C)C)cc1 [isoproturon]	−
CON(C)C(=O)Nc1ccc(Cl)c(Cl)c1 [linuron]	−
CCOC(=O)C1=NN(c2ccc(Cl)cc2Cl)C(C)(C(=O)OCC)C1 (centres unmarked) [mefenpyr-diethyl]	−
CC1(C)CCC(Cc2ccc(Cl)cc2)C1(O)Cn1cncn1 (centres unmarked) [metconazole]	−
CNC(=O)Oc1cc(C)c(SC)c(C)c1 [methiocarb]	−
OC(c1ccc(F)cc1)(c1cncnc1)c1ccccc1Cl (centres unmarked) [nuarimol]	−
CC(C)(C)C(O)C(Cc1ccc(Cl)cc1)n1cncn1 (centres unmarked) [paclobutrazole]	−
CCC(=O)Nc1ccc(Cl)c(Cl)c1 [propanil]	−
OC(Cc1ccccc1Cl)(Cn1nc[nH]c1=S)C1(Cl)CC1 (centres unmarked) [prothioconazole]	−
CCOP(=S)(OCC)Oc1ccc(=O)n(-c2ccccc2)n1 [pyridaphenthion]	−
CC1CCCCC1NC(=O)Nc1ccccc1 (centres unmarked) [siduron]	+
CCNc1nc(NCC)nc(SC)n1 [simetryn]	−
CC(C)(C)C(O)(CCc1ccc(Cl)cc1)Cn1cncn1 (centres unmarked) [tebuconazole]	−
CC(C)(C)C(=O)C(Oc1ccc(Cl)cc1)n1cncn1 (centres unmarked) [triadimefon]	−
CC(C)(C)C(O)C(Oc1ccc(Cl)cc1)n1cncn1 (centres unmarked) [triadimenol]	−
CCOC(=O)CSc1nc(C(C)(C)C)nn1C(=O)N(C)C [triazamate]	+
